Consider nine compounds from ChEMBL document CHEMBL1909046, “DrugMatrix in vitro pharmacology data”.

Structures are written as SMILES. pIC50, pKi: −log10 of the molar value.

The target in experiment [1] is T1, Alpha-1A adrenergic receptor (Rattus norvegicus, UniProt P43140).
T1 sequence (P43140 whole entry): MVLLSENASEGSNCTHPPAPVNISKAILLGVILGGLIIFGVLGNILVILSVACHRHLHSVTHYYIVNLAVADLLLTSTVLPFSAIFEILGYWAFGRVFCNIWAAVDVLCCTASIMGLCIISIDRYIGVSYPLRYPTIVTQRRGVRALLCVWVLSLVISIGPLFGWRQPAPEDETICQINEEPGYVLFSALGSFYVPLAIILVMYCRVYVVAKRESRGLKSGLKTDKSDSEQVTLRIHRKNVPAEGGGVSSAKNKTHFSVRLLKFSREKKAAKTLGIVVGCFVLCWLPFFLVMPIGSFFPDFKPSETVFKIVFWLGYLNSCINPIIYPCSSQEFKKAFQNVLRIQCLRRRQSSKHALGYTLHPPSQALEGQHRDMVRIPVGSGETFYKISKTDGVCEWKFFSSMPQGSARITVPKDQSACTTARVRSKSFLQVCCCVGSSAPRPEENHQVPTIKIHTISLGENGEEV
Nature of the experiment: DRUGMATRIX: Alpha-1A adrenergic receptor radioligand binding (ligand: prazosin). It counts as cell membranes, Wistar, Submaxillary gland, Membrane. To be noted: Not Active = under 50% inhibition at 10 µM; for pIC50: read-out: IC50; for pKi: read-out: Ki.

The next experiment addresses T2, Calcitonin receptor (Homo sapiens, UniProt P30988).
T2 sequence (P30988 whole entry): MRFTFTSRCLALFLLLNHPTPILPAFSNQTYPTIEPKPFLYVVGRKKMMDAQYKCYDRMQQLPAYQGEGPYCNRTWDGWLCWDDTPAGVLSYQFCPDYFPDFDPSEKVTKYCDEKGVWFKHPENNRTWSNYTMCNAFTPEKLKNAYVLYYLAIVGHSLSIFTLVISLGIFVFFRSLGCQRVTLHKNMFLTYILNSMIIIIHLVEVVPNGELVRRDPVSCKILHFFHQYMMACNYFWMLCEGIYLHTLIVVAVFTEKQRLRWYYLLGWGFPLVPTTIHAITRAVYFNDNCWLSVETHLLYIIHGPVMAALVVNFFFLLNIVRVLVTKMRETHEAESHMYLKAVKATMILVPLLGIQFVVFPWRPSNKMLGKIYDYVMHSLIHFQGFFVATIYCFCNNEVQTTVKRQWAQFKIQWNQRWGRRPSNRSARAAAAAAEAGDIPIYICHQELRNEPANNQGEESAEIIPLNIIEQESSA
It counts as cell membranes, Membrane. To be noted: t47d.

Experiment [2] can be described thus: DRUGMATRIX: Calcium Channel Type L, Dihydropyridine radioligand binding (ligand: [3H] Nitrendipine). It counts as cell membranes, Rattus norvegicus, Wistar, Cerebral cortex, Membrane. To be noted: Not Active = under 50% inhibition at 10 µM.
For experiment [3], the target named is C-C chemokine receptor type 5 (Homo sapiens, UniProt P51681). It counts as cell membranes, Membrane. To be noted: hek293. Further: in other assays of this panel Not Active means under 50% inhibition at 10 µM.
For experiment [4], the target named is T3, Muscarinic acetylcholine receptor M2 (Homo sapiens, UniProt P08172). Further: in other assays of this panel Not Active means under 50% inhibition at 10 µM.
T3 sequence (P08172 whole entry): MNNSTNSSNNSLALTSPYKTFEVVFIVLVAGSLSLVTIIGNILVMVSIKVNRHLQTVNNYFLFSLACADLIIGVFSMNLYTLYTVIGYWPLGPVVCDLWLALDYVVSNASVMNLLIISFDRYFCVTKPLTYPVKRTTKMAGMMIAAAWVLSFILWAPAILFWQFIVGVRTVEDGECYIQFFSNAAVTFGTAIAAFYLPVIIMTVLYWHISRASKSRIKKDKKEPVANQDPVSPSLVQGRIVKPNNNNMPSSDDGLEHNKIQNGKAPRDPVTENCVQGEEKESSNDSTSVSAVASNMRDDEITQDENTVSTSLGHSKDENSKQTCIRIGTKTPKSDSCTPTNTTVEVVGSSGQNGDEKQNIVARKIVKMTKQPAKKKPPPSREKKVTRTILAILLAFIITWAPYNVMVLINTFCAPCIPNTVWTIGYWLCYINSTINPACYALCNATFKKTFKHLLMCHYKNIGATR
It counts as cell membranes, CHO-K1, Membrane. To be noted: cho-k1.

Experiment [5] has as its target Platelet-activating factor receptor (Homo sapiens, UniProt P25105). It counts as tissue-based. Further: in other assays of this panel Not Active means under 50% inhibition at 10 µM.
Experiment [6] concerns the target Matrix metalloproteinase-9 (Homo sapiens, UniProt P14780). It counts as cell-based.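 Further: inhibition of isolated MMP-9 enzyme activity toward a synthetic peptide substrate, from the DrugMatrix protease screening panel; in other assays of this panel Not Active means under 50% inhibition at 10 µM.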

Chain of Matrix metalloproteinase-9 (P14780 whole entry): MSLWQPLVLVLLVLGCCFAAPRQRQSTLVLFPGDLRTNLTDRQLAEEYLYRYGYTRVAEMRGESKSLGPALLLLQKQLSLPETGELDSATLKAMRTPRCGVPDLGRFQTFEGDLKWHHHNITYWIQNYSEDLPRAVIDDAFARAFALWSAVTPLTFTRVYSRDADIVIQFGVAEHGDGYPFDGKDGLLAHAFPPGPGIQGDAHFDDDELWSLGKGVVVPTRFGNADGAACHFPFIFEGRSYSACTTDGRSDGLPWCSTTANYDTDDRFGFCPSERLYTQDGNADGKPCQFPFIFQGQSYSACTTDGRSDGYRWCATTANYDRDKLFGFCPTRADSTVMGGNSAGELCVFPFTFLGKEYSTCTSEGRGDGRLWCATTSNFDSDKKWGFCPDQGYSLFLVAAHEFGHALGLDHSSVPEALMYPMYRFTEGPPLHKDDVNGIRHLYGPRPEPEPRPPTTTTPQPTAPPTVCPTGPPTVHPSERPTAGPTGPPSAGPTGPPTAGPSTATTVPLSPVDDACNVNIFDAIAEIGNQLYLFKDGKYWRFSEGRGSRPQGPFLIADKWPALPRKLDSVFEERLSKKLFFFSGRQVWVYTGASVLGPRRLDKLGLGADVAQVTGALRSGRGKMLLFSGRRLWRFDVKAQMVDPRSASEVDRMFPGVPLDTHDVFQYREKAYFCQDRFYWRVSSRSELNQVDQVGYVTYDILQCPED
Chain of Platelet-activating factor receptor (P25105 whole entry): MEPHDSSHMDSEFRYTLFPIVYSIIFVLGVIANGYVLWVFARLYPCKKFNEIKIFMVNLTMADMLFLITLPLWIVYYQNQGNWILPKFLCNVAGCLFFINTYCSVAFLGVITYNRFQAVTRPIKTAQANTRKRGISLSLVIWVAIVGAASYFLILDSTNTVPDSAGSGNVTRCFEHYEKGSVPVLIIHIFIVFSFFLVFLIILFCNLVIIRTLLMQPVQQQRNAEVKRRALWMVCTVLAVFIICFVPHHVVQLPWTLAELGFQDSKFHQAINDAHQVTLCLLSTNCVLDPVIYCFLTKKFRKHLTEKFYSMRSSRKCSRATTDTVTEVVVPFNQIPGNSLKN
Chain of C-C chemokine receptor type 5 (P51681 whole entry): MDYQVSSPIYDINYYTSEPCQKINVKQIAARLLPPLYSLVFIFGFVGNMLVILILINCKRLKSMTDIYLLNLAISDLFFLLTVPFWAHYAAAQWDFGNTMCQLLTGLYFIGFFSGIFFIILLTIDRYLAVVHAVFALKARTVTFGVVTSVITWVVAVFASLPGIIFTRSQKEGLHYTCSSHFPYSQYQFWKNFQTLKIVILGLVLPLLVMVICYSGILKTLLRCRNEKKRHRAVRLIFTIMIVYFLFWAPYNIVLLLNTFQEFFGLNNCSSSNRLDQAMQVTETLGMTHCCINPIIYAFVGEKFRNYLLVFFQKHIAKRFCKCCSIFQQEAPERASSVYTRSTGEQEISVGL

Consider `CCOc1nc2cccc(C(=O)O)c2n1Cc1ccc(-c2ccccc2-c2nnn[nH]2)cc1`, for which the IC50 result (in experiment [1]; at Calcitonin receptor; in experiment [2]; in experiment [3]; in experiment [4]; in experiment [5]) was “Not Active” in each case. The IC50 result in experiment [6] is recorded as “Not Active”. In experiment [2], the Ki entry was “Not Active”.

Consider `O=C(O)CCCc1cccs1`, for which the IC50 result (in experiment [1]; at Calcitonin receptor; in experiment [2]; in experiment [3]; in experiment [4]; in experiment [5]) was “Not Active” in each case. In experiment [6], the IC50 result is recorded as “Not Active”. In experiment [2], the Ki result was “Not Active”.

As for `COc1ccccc1N`, the IC50 result (in experiment [1]; at Calcitonin receptor; in experiment [2]; in experiment [3]; in experiment [4]; in experiment [5]) was “Not Active” each time. Also, the IC50 entry in experiment [6] is listed as “Not Active”. Moreover, in experiment [2], the Ki result is “Not Active”.

Take `O=C(c1ccccc1F)N1CCC(Cc2ccccc2)CC1`: the IC50 result (in experiment [1]; on Calcitonin receptor; in experiment [2]; in experiment [3]; in experiment [4]; in experiment [5]) was “Not Active” in each case. In addition, the IC50 entry in experiment [6] is recorded as “Not Active”. Moreover, the Ki entry in experiment [2] is on record as “Not Active”.

In the case of `Cc1c(O)cccc1C(=O)N[C@@H](CSc1ccccc1)[C@H](O)CN1C[C@H]2CCCC[C@H]2C[C@H]1C(=O)NC(C)(C)C`, the IC50 result (in experiment [1]; at Calcitonin receptor; in experiment [3]; in experiment [4]; in experiment [5]; in experiment [6]) was “Not Active” in each case. Also, in experiment [2] (read-out: IC50), the pIC50 (as a rule, the negative decadic logarithm of the IC50, by convention in mol/L) is 5.01. The pKi (as a rule, the Ki on a negative log10 scale, so that one unit is a factor of ten) in experiment [2] (read-out: Ki) was 5.20.

Regarding `CC(O)COC[C@H]1O[C@@H]2O[C@H]3[C@H](O)[C@@H](O)[C@@H](O[C@H]4[C@H](O)[C@@H](O)[C@@H](O[C@H]5[C@H](O)[C@@H](O)[C@@H](O[C@H]6[C@H](O)[C@@H](O)[C@@H](O[C@H]7[C@H](O)[C@@H](O)[C@@H](O[C@H]8[C@H](O)[C@@H](O)[C@@H](O[C@H]1[C@H](O)[C@H]2O)O[C@@H]8COCC(C)O)O[C@@H]7COCC(C)O)O[C@@H]6COCC(C)O)O[C@@H]5COCC(C)O)O[C@@H]4COCC(C)O)O[C@@H]3COCC(C)O` (stereo partly drawn) [2-HYDROXYPROPYL-BETA-CYCLODEXTRIN], the IC50 entry (in experiment [1]; at Calcitonin receptor; in experiment [2]; in experiment [3]; in experiment [4]; in experiment [5]) was “Not Active” in each case. Moreover, the IC50 result in experiment [6] is on record as “Not Active”. Also, in experiment [2], the Ki entry is on record as “Not Active”.

Take `NC(=O)c1cccc(N)c1` [3-AMINOBENZAMIDE]: the IC50 result (in experiment [1]; at Calcitonin receptor; in experiment [2]; in experiment [3]; in experiment [4]; in experiment [5]) was “Not Active” throughout. For the same compound, the IC50 entry in experiment [6] is reported as “Not Active”. In addition, the Ki entry in experiment [2] is given as “Not Active”.

As to `CN(C)CCC=C1c2ccccc2CCc2ccccc21` [AMITRIPTYLINE], the pIC50 in experiment [1] was 7.85. In addition, the negative-log Ki (pKi) in experiment [1] was 8.25. The IC50 entry (at Calcitonin receptor; in experiment [2]; in experiment [3]; in experiment [5]; in experiment [6]) was “Not Active” throughout. The Ki entry in experiment [2] was “Not Active”.

In the case of `N=C(N)c1ccc(OCCCCCOc2ccc(C(=N)N)cc2)cc1` [PENTAMIDINE], in experiment [1], the negative logarithm of the IC50 (pIC50) was 5.92. The pKi in experiment [1] is 6.31. In addition, the IC50 entry (at Calcitonin receptor; in experiment [2]; in experiment [3]; in experiment [5]; in experiment [6]) was “Not Active” throughout. The Ki entry in experiment [2] was “Not Active”.
